# Patent publication US7198804B2, “Crude drug composition for preventing and treating gastrointestinal dyskinetic diseases” (Helixir Co., Ltd., priority 2002, dated 2007)
# Counter-ions that a name gives are not always drawn.
# Legend:
# [1] = test system: gastrointestinal motility; test: Gastrointestinal transit (GIT) of charcoal meal in mice; type: in vivo, ICR derived mice; settings: for GIT: mean±S.E.M.
# Protocol: Female ICR derived mice (Seoul National University) weighing 22±2 grams were used. All animals were maintained in a controlled environment with temperatures at 22° C.–24° C. and humidity at 60%–80% with 12 hours of light and dark cycles for at least one week prior to use. 9 groups of 8 ICR derived female mice were fasted with free access to water for 16 hours prior to testing.
# For the estimation of the effect on gastrointestinal motility, 0.1 g of the brown powder of each formulation obtained in Example 1, was dissolved in 1 ml of 2% Tween 80 (Wako, Japan) and administrated orally to the mice.
# Atropine sulfate (Sigma, USA) was used for the negative control in the experiment, which is known to induce smooth muscle relaxation. Mosapride citrate was administered at 20 mg/kg. Each crude drug composition of 6 formulations prepared in Example 1, was administered at 1.0 g/kg. At 60 minutes post dosing, the animals were given a suspension of 5% activated charcoal (Sigma, USA) in a 10% arabic gum (Sigma, USA) solution (0.3 ml/animal p.o.) and sacrificed 15 minutes later.
# The intestine was removed and the length of the gut in cm (GL) as well as distance of charcoal movement from the pylorus to the beginning of the charcoal column in cm (CP), was measured. Gastrointestinal transit (GIT) has been calculated as below Formula 1. The mean GIT value of each group has been compared to that of the vehicle control. GIT(%)=(CP/GL)×100 Formula 1
# Values were expressed as means±S.E.M. Students' t-test was used for the statistical analysis of the results of gastrointestinal transit. Probability values (p) less than 0.05 were considered to be significant.
# PG202, prepared in Example 1, was administered into the mice orally at concentrations of 0.1 g/kg, 1.0 g/kg, and 5.0 g/kg. The control group was administered with the vehicle (2% Tween 80) at 10 ml/kg. At 60 minutes post dosing, the animals were given a suspension of 5% activated charcoal (Sigma, USA) in a 10% Arabic gum (Sigma, USA) solution (0.3 ml/animal p.o.) and sacrificed 15 minutes later and the gastrointestinal transit (GIT) was examined according to the Formula 1. Data have been expressed as means±S.E.M.*p<0.05.
# PG202 was administrated orally at 1.0 g/kg to the test group, 2% Tween 80 (Wako, Japan) at 10 ml/kg to control group, Mosapride citrate at 20 mg/kg to positive control group, Atropine sulfate (Sigma, USA) at 100 mg/kg to negative control group. Data have been expressed as means±S.E.M.*p<0.05.
# At 60 minutes post dosing, the animals were given a suspension of 5% activated charcoal (Sigma, USA) in a 10% arabic gum (Sigma, USA) solution (0.3 ml /animal p.o.) and sacrificed 15 minutes later. GIT (%) values were determined according to the Formula 1.
# rodents = settings: cited from earlier work
SMILES,decrease of GIT in comparison to the control group ([1]; 100 mg/kg p.o.) [%],"GIT ([1]; 100 mg/kg p.o., negative control) [%]",incidence of hepatocellular adenoma and thyroid follicular cell adenoma (rodents),increase of GIT compared to the control ([1]; 20 mg/kg p.o.) [%],"GIT ([1]; 20 mg/kg p.o., positive control) [%]"
"CN1[C@@H]2CC[C@H]1CC(OC(=O)C(CO)c1ccccc1)C2.CN1[C@@H]2CC[C@H]1CC(OC(=O)C(CO)c1ccccc1)C2.O=S(=O)(O)O (some centres unmarked) [Atropine, Atropine sulfate]",35,35.4±3.4,,,
CCOc1cc(N)c(Cl)cc1C(=O)NCC1CN(Cc2ccc(F)cc2)CCO1 (centres unmarked) [mosapride citrate],,,increased,21,63.7±5.2
